Measurements as given in PMC6788505 (2019).

Assays:
[1] = tested on: CA32 (DNA, aptamer) TCCGGACTTGGGTGGGTGGGTTGGGGTACGGT; assay: E-AB sensor, kinetic differential measurement (10 and 120 Hz); conditions: buffer; apparent; co-deposited 1:1 with linear probe; surface-bound
[2] = tested on: CA40 (DNA, aptamer) ACGCTCCGGACTTGGGTGGGTGGGTTGGGGTACGGTGCGT; assay: fluorescence titration (intrinsic irinotecan fluorescence); conditions: working buffer; 1 µM irinotecan titrated with aptamer; excitation 370 nm
[3] = tested on: CA28 (DNA, aptamer) CGGACTTGGGTGGGTGGGTTGGGGTACG; assay: E-AB sensor, square-wave voltammetry; conditions: working buffer; apparent; surface-bound; KD fixed in fit
[4] = tested on: CA40_1MM (DNA, aptamer) ACGCTCCGGACTTGGGTGGGTGGGTTGGGGTACGGTGTGT; assay: E-AB sensor, square-wave voltammetry; conditions: working buffer; apparent; surface-bound
[5] = tested on: CA36 (DNA, aptamer) GCTCCGGACTTGGGTGGGTGGGTTGGGGTACGGTGC; assay: E-AB sensor, square-wave voltammetry; conditions: working buffer; apparent; surface-bound
[6] = tested on: CA16 (DNA, G4) GGGTGGGTGGGTTGGG; assay: E-AB sensor, square-wave voltammetry; conditions: working buffer; apparent; surface-bound; KD fixed in fit
[7] = tested on: CA40_2MM (DNA, aptamer) ACGCTCTGGACTTGGGTGGGTGGGTTGGGGTACGGTGTGT; assay: E-AB sensor, square-wave voltammetry; conditions: working buffer; apparent; surface-bound
[8] = tested on: CA32 (DNA, aptamer) TCCGGACTTGGGTGGGTGGGTTGGGGTACGGT; assay: E-AB sensor, square-wave voltammetry; conditions: working buffer; apparent; surface-bound

SMILES: CCc1c2c(nc3ccc(OC(=O)N4CCC(N5CCCCC5)CC4)cc13)-c1cc3c(c(=O)n1C2)COC(=O)[C@]3(O)CC
- KD [1]: 16.0 ± 1.3 µM
- KD [2]: 0.475 ± 0.01 µM
- binding [3]: yes
- binding [4]: yes
- binding [5]: yes
- binding [6]: yes
- binding [7]: yes
- binding [8]: yes
